Values after ≈ are worked out from the molar mass of the structure shown. Active and inactive are the calls of the source. The rule behind the calls is not given here.

From ChEMBL document CHEMBL3286266, “Development of novel benzomorpholine class of diacylglycerol acyltransferase I inhibitors” (ACS Med Chem Lett, 2014) come the findings set out here.

The nature of data set [1]: Plasma protein binding in human. It counts as ADME, cell-free. The following applies: read-out: PPB.
A short description of data set [2]: Permeability in human Caco2 cells. The following applies: Caco-2, read-out: permeability. In kind it is ADME, cell-based. (Caco-2 cells form a polarised layer with tight junctions and transporters.)
Data set [3] can be described thus: Clearance in monkey liver hepatocytes measured per million cells. It counts as ADME, Macaca mulatta, Hepatocyte. The following applies: rhesus monkey, read-out: CLH.
The nature of data set [4]: Oral bioavailability in mouse at 1 mg/kg. It counts as ADME, organism-based. Particulars: in vivo.
For the next data set, the system named is Hepatocyte. The data set is described as follows: Clearance in human liver hepatocytes measured per million cells. It counts as ADME, cell-based.
Data set [5] is described as follows: AUC in rat at 10 mg/kg, po. It counts as ADME, organism-based. Details: dose 10 mg/kg, route oral. The following applies: plasma.
Data set [6] is described as follows: Inhibition of histamine receptor (unknown origin). Details: species or system Homo sapiens.
Data set [7] is described as follows: Half life in rat at 10 mg/kg, po. It counts as ADME, organism-based. Details: dose 10 mg/kg, route oral. Particulars: in vivo.
In a further data set the target is T1, Caspase-9 (Homo sapiens, UniProt P55211).
T1 sequence (P55211 whole entry): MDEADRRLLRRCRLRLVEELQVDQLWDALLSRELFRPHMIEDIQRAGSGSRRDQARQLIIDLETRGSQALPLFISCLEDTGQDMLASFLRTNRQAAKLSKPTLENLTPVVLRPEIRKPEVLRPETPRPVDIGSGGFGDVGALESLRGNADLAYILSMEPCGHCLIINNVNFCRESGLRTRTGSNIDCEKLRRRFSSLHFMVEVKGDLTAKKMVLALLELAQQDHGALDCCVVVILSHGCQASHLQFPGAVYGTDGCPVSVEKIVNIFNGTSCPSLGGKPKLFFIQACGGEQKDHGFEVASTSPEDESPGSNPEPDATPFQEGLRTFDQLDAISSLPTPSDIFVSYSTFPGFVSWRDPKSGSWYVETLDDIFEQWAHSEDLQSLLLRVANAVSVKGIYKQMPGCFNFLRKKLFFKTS
The data set is described as follows: Inhibition of CASP9 (unknown origin).

For data set [8], the target named is T2, Diacylglycerol O-acyltransferase 1 (Homo sapiens, UniProt O75907).
T2 sequence (O75907 whole entry): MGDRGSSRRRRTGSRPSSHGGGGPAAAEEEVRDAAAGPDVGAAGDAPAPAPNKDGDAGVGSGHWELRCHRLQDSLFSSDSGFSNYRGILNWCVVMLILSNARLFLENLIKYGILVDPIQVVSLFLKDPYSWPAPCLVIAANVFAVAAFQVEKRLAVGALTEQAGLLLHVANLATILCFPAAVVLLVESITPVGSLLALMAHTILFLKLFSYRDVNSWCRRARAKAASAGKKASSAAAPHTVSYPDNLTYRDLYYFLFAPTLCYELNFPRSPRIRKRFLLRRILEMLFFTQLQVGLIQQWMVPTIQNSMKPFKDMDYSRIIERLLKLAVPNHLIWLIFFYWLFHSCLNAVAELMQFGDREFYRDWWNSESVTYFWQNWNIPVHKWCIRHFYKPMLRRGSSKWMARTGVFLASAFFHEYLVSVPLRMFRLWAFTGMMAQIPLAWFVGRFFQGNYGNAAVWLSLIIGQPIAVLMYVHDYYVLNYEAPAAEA
The data set is described as follows: Inhibition of human DGAT1 expressed in Sf9 insect cells using 1,2-dioleoyl-sn-glycerol and [14C]-palmitoyl-CoA substrate by scintillation counting analysis.

The target of a further data set is Prostacyclin receptor (Homo sapiens, UniProt P43119). The data set is described as follows: Inhibition of prostanoid IP receptor (unknown origin).
A short description of data set [9]: Cmax in rat at 10 mg/kg, po. In kind it is ADME, organism-based. Details: dose 10 mg/kg, route oral. The following applies: in vivo.
Data set [10] is described as follows: Half life in mouse at 1 mg/kg, po. In kind it is ADME, organism-based. Details: dose 1 mg/kg, route oral. Particulars: in vivo.
A short description of data set [11]: Clearance in rat liver hepatocytes measured per million cells. It counts as ADME, cell-based, Hepatocyte. Particulars: read-out: CLH.
The nature of data set [12]: Cmax in monkey at 3 mg/kg, po. In kind it is ADME, organism-based, Macaca mulatta. Details: dose 3 mg/kg, route oral. Particulars: rhesus monkey, in vivo.
Data set [13] deals with Mus musculus. The data set is described as follows: Reduction in triglycerides level in mouse at 3 mg/kg, po after 2 hrs by postprandial triglyceride assay. In kind it is functional.
A short description of data set [14]: Clearance in dog liver hepatocytes measured per million cells. In kind it is ADME, Canis lupus familiaris, Hepatocyte. The following applies: read-out: CLH.
A short description of data set [15]: Cmax in mouse at 1 mg/kg, po. It counts as ADME, organism-based. Particulars: in vivo. Further details: dose 1 mg/kg, route oral.
In a further data set the target is D(2) dopamine receptor (Homo sapiens, UniProt P14416). The data set is described as follows: Inhibition of D2 receptor (unknown origin).
A short description of data set [16]: AUC in monkey at 3 mg/kg, po. In kind it is ADME, organism-based, Macaca mulatta. Details: dose 3 mg/kg, route oral. The following applies: rhesus monkey, plasma.
Data set [17] in a line: Oral bioavailability in rat at 10 mg/kg. In kind it is ADME, organism-based. The following applies: in vivo.
The nature of data set [18]: Inhibition of purinergic receptor (unknown origin). Further details: species or system Homo sapiens.
Another data set concerns the target Cannabinoid receptor 1 (Homo sapiens, UniProt P21554). The data set is described as follows: Inhibition of CB1 receptor (unknown origin).
Data set [19] has as its target Epidermal growth factor receptor (Homo sapiens, UniProt P00533). The data set is described as follows: Inhibition of EGF receptor (unknown origin).
Data set [20] is described as follows: Cmax in dog at 2 mg/kg, po. In kind it is ADME, organism-based, Canis lupus familiaris. Details: dose 2 mg/kg, route oral. Particulars: in vivo.
Data set [21] in a line: Inhibition of neuropeptide Y receptor (unknown origin). Further details: species or system Homo sapiens.
A further data set addresses Insulin receptor (Homo sapiens, UniProt P06213). The data set is described as follows: Inhibition of insulin receptor (unknown origin).
The nature of data set [22]: AUC in mouse at 1 mg/kg, po. In kind it is ADME, organism-based. Further details: dose 1 mg/kg, route oral. The following applies: plasma.
The nature of data set [23]: Inhibition of serotonin receptor (unknown origin). Details: species or system Homo sapiens.
The nature of data set [24]: Half life in dog at 2 mg/kg, po. In kind it is ADME, organism-based, Canis lupus familiaris. Further details: dose 2 mg/kg, route oral. Particulars: in vivo.
Data set [25] has as its system Mus musculus. The data set is described as follows: Induction of weight loss in diet-induced obese C57BL/6J mouse assessed as reduction in food intake at 30 mg/kg, po qd measured during 1 to 4 days. It counts as functional, organism-based. Details: dose 30 mg/kg.
Data set [26] in a line: AUC in dog at 2 mg/kg, po. In kind it is ADME, organism-based, Canis lupus familiaris. Details: dose 2 mg/kg, route oral. The following applies: plasma.
Data set [27] in a line: Inhibition of CCK receptor (unknown origin). Details: species or system Homo sapiens.
The nature of data set [28]: Clearance in mouse liver hepatocytes measured per million cells. In kind it is ADME, Hepatocyte. The following applies: read-out: CLH.
The target of data set [29] is T3, Diacylglycerol O-acyltransferase 1 (Mus musculus, UniProt Q9Z2A7).
T3 sequence (Q9Z2A7 whole entry): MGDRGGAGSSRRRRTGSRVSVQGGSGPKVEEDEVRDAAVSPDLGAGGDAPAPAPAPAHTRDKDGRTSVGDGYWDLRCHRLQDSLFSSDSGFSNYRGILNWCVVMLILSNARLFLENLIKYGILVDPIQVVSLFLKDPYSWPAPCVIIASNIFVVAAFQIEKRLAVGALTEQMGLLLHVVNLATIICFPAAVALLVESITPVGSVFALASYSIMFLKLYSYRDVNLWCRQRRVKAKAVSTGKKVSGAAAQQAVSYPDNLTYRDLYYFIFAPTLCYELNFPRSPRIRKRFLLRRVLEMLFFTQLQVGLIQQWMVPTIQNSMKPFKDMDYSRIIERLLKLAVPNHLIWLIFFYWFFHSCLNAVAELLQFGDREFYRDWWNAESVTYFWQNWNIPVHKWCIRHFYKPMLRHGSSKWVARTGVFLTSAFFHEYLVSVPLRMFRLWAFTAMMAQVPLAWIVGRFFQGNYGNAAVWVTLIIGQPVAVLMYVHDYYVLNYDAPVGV
The data set is described as follows: Inhibition of mouse DGAT1 expressed in Sf9 insect cells using 1,2-dioleoyl-sn-glycerol and [14C]-palmitoyl-CoA substrate by scintillation counting analysis.

For data set [30], the system named is Mus musculus. The data set is described as follows: Induction of weight loss in diet-induced obese C57BL/6J mouse assessed as decrease in body weight at 30 mg/kg, po qd measured during 11 day chronic study. It counts as functional. The following applies: 264 h.
Data set [31] deals with Mus musculus. The data set is described as follows: Reduction in triglycerides level in mouse at 3 mg/kg, po after 12 hrs by postprandial triglyceride assay. In kind it is functional.
For another data set, the target named is Caspase-8 (Homo sapiens, UniProt Q14790). The data set is described as follows: Inhibition of CASP8 (unknown origin).
A short description of data set [32]: Plasma protein binding in mouse. Particulars: read-out: PPB. It counts as ADME.
A short description of data set [33]: Half life in monkey at 3 mg/kg, po. It counts as ADME, organism-based, Macaca mulatta. Details: dose 3 mg/kg, route oral. The following applies: rhesus monkey, in vivo.
A short description of data set [34]: Solubility in plasma (unknown origin) at pH 7. It counts as ADME, cell-free.
Data set [35] deals with Mus musculus. The data set is described as follows: Induction of weight loss in diet-induced obese C57BL/6J mouse assessed as decrease in body weight at 10 mg/kg, po qd measured during 11 day chronic study. In kind it is functional. Details: scale not given: the % may be the effect or the level left.

Chain of Epidermal growth factor receptor (P00533 whole entry): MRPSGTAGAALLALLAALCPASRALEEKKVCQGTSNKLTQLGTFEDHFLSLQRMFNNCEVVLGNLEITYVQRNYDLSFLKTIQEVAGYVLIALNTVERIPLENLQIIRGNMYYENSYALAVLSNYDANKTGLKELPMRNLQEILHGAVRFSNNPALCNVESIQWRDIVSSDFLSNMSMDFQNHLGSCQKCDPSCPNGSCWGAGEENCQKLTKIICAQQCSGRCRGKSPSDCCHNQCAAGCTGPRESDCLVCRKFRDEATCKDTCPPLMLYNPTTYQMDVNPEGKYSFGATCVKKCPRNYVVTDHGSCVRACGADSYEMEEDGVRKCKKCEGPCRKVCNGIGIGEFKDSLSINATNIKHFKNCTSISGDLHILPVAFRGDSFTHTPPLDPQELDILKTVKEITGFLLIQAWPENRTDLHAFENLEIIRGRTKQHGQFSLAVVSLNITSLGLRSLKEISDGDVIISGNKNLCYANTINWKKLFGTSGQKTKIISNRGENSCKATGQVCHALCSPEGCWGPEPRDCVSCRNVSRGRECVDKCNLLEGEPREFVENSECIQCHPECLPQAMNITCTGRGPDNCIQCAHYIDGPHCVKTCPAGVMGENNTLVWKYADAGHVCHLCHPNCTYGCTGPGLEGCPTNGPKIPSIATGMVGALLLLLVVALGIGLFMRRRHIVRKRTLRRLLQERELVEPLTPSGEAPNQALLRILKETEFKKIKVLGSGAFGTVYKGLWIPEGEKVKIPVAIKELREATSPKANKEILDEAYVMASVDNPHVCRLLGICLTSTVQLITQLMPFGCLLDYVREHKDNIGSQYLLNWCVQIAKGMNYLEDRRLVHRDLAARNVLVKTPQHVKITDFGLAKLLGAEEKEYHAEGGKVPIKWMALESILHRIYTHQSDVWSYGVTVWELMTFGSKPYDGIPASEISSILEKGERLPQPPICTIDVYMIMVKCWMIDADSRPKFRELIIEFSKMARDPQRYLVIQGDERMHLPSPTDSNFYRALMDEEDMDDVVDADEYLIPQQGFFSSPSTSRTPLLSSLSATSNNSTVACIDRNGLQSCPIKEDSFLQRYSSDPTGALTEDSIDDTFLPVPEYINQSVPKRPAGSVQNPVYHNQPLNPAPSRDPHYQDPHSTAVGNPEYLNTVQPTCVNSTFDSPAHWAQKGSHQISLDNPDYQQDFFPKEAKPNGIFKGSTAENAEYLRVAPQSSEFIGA
Chain of Prostacyclin receptor (P43119 whole entry): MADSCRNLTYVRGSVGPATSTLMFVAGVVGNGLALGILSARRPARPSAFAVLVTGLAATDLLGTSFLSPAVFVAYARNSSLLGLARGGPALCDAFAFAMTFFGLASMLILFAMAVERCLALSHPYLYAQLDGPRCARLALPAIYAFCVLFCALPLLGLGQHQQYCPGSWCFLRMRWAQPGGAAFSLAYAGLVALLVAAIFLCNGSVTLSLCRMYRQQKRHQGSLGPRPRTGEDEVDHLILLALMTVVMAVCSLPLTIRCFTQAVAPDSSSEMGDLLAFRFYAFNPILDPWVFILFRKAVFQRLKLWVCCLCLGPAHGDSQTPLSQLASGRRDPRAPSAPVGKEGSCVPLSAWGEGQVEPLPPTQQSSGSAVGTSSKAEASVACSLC
Chain of Insulin receptor (P06213 28-758 limits assumed): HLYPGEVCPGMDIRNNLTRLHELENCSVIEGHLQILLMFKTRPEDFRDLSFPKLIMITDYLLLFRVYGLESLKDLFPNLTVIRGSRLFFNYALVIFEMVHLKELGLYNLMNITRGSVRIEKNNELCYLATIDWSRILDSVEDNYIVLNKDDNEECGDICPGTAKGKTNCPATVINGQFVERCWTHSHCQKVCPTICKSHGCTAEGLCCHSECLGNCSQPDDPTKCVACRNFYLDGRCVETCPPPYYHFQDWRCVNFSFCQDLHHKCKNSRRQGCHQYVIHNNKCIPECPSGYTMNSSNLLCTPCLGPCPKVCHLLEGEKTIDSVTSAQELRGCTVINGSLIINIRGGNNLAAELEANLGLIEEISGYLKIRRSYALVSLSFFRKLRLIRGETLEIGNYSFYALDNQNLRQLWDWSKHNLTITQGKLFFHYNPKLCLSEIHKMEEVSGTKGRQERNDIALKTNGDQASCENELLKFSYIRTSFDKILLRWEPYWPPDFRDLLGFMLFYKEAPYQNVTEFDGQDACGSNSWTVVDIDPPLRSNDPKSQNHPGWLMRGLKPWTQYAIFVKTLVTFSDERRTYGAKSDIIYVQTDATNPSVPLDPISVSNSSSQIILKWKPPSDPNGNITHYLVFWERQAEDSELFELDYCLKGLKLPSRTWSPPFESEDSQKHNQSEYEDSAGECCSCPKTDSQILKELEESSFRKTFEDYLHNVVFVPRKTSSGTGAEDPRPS
Chain of Insulin receptor (P06213 763-1382 limits assumed): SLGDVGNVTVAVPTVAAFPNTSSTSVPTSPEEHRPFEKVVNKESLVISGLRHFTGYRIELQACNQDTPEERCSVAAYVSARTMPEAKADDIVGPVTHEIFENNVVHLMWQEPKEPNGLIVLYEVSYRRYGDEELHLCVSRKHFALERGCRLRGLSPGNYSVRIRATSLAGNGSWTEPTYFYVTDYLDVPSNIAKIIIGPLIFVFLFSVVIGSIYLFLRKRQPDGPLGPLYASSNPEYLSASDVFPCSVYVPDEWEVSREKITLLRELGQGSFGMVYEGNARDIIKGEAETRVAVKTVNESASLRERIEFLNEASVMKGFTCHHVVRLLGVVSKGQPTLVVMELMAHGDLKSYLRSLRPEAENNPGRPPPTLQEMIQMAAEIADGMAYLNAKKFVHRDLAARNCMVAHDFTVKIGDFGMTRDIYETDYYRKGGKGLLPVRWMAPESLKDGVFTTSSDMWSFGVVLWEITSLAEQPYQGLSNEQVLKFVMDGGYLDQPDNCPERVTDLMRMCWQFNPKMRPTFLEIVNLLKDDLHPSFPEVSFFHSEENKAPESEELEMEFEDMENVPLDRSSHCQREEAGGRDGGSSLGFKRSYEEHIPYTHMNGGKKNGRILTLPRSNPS
Chain of Caspase-8 (Q14790 217-374 limits assumed): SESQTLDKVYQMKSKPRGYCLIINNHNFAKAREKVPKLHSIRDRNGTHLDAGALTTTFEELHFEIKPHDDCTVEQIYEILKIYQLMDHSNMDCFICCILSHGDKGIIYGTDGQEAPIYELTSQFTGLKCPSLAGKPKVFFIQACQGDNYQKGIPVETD
Chain of Caspase-8 (Q14790 385-479 limits assumed): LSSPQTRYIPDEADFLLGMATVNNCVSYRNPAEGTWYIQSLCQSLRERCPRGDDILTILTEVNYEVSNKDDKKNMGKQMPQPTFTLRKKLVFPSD
Chain of Cannabinoid receptor 1 (P21554 whole entry): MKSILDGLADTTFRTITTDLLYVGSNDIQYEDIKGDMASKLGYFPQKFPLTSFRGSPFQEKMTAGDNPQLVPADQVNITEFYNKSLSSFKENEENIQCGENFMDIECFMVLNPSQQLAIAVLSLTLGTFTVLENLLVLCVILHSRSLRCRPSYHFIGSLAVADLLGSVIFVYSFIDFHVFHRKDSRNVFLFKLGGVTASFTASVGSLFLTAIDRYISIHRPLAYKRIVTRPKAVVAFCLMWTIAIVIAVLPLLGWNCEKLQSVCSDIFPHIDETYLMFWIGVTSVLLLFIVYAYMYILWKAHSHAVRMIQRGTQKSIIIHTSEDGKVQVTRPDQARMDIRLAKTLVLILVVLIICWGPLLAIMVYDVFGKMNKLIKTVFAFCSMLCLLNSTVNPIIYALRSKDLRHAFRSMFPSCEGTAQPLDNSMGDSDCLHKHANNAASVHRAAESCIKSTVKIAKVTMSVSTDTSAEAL
Chain of D(2) dopamine receptor (P14416 whole entry): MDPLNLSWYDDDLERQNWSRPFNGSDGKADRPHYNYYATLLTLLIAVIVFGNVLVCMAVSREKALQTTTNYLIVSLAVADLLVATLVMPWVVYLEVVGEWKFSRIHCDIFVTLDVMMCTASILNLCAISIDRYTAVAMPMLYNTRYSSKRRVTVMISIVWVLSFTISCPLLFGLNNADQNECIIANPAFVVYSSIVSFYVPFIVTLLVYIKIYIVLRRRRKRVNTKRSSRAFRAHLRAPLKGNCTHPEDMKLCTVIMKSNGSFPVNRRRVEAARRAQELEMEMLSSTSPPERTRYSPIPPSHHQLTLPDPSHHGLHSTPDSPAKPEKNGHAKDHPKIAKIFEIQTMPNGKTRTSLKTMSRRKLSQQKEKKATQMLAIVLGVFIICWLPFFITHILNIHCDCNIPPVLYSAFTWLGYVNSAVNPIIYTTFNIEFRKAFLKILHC

By bioavailability is commonly meant dose-corrected exposure relative to a reference, in per cent. What is called AUC is the area under the concentration-time curve, a measure of exposure. The term IC50 denotes the concentration that gives 50% inhibition. The half-life is how long it takes for the measured level to halve. As a reminder, the Cmax is the highest concentration seen after dosing. One may read the inhibition in vivo as the share of the control response that was lost under treatment. What is called solubility is the concentration that dissolves in the medium under given conditions. Turning to `CCc1ccccc1NC(=O)N1C[C@@H](C)Oc2cc(-c3ccc([C@H]4CC[C@H](CC(=O)O)CC4)cc3)ccc21`, the fraction unbound in data set [1] and in [32] was less than 0.005 throughout. For the same compound, the Papp in [2] was 20.1 ×10⁻⁶ cm/s. Also, the hepatocyte CLint in data set [3] was 14 µL/min/1e6 cells; in [11], 10 µL/min/1e6 cells; in [14] it was 16 µL/min/1e6 cells; in [28], 6.2 µL/min/1e6 cells. In addition, the bioavailability in data set [4] amounted to 89%; in data set [17], 75%. In addition, the CLH in the data set on Hepatocyte was determined as 14 µL/min/1e6 cells. The AUC in data set [5] worked out at 41 µM·h; in data set [16], 64 µM·h; in data set [22], 3.7 µM·h; in data set [26] it was 23 µM·h. Also, the IC50 is more than 10 µM in data set [6]; 5 µM against Caspase-9; 0.064 µM in data set [8]; 1 µM at Prostacyclin receptor; more than 10 µM on D(2) dopamine receptor; more than 10 µM in data set [18]. Moreover, the IC50 against Cannabinoid receptor 1 is more than 10 µM; in data set [19] it was 7.5 µM; in [21] it was more than 10 µM; at Insulin receptor, 5.7 µM; in data set [23], more than 10 µM; in data set [27], more than 10 µM. In addition, the IC50 in [29] came out at 0.044 µM; at Caspase-8, 6.8 µM. In addition, the half-life in [7] is 3 h; in data set [10], 6.2 h; in data set [24] it was 3 h; in data set [33], 3 h. Besides, the Cmax was found to be 9.1 µM in data set [9], 5.7 µM in [12], 0.6 µM in data set [15] and 3.3 µM in [20]. The inhibition in vivo at 3 mg/kg with Mus musculus [13] worked out at 93%; with Mus musculus [31] it was 87%. Moreover, the result with Mus musculus [25] was Active. Further, the inhibition in vivo at 30 mg/kg with Mus musculus [30] was more than 5%. Also, the concentration in solution in data set [34] (solubility) came to 50 µM (≈ 25.6 µg/mL).

As for `O=C(Nc1ccc(OC(F)(F)F)cc1)Nc1ccc(-c2ccc(C(=O)[C@@H]3CCC[C@H]3C(=O)O)cc2)cc1F`, the Activity in the data set with Mus musculus [35] turned out to be 2%.
